# Assays:
# [1] = system: BII cells; conditions: ref Dinan, 1985; cited from earlier work
# [2] = biological target: T1, Ecdysteroid receptor complexes extracted from BII cells (Drosophila melanogaster, UniProt P34021); assay: Cell-free receptor assay with receptor complexes extracted from BII cells; format: binding; conditions: ratio of Kd in cell-free BII extract to EC50 in BII bioassay
# T1 sequence (P34021 1-878): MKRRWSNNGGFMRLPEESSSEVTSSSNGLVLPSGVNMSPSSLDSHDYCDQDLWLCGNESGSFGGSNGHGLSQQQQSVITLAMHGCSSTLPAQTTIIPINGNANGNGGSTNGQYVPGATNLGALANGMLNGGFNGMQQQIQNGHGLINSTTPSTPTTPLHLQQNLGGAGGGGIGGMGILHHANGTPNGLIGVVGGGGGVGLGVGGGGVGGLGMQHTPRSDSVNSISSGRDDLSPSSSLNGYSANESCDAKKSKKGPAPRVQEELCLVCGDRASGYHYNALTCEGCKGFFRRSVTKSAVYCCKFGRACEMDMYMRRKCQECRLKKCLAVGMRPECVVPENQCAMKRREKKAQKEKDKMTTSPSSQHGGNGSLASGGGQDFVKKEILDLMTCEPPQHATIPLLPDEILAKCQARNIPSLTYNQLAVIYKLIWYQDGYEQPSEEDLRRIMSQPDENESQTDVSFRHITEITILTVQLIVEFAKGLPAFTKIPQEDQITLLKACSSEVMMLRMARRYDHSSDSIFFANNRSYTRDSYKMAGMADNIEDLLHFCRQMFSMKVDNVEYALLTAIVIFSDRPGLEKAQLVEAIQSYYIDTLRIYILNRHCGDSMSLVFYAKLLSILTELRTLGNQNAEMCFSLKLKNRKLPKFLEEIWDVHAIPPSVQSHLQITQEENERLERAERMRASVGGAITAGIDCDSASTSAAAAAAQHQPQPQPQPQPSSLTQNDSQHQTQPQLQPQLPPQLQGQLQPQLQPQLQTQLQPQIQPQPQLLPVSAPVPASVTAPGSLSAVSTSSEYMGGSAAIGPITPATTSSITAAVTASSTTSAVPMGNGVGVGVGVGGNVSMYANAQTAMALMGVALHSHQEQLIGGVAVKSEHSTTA
# T1 sequence (P20153 1-508 partner): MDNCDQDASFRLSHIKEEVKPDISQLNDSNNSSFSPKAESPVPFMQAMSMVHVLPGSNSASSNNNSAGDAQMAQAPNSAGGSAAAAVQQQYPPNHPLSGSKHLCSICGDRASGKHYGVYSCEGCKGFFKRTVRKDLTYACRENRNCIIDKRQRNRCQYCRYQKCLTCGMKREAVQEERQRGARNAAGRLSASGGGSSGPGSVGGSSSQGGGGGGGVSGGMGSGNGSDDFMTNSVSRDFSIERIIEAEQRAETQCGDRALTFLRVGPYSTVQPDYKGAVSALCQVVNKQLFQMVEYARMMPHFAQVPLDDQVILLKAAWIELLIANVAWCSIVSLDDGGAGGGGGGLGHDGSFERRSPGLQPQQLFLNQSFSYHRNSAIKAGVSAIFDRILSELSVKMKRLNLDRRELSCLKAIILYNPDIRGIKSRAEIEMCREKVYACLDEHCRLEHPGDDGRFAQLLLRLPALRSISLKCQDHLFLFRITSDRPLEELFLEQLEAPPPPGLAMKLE
# [3] = format: physicochemical; conditions: after attempted synthesis
# [4] = system: insect EcR proteins when expressed in mammalian cells and partnered by RXR; conditions: altered ligand specificity and affinity; no reference given; cited from earlier work
Structure (SMILES),Kd/EC50 [2],also measured
"CC(C)(O)CC[C@@H](O)[C@](C)(O)[C@H]1CC[C@@]2(O)C3=CC(=O)[C@@H]4C[C@@H](O)[C@@H](O)C[C@]4(C)[C@H]3CC[C@]12C [compound 6, 20-hydroxyecdysone]",,metabolism by BII cells [1]: do not metabolise
"CC(C)CC[C@@H](O)[C@](C)(O)[C@H]1CC[C@@]2(O)C3=CC(=O)[C@@H]4C[C@@H](O)[C@@H](O)C[C@]4(C)[C@H]3[C@H](O)C[C@]12C [compound 8, ajugasterone C]",very low,
CC(C)(O)CC[C@@H](O)[C@](C)(O)[C@H]1CC[C@@]2(O)C3=CC(=O)[C@@H]4C[C@@H](O)[C@@H](O)C[C@]4(C)[C@H]3[C@H](OC(=O)c3ccccc3)C[C@]12C [turkesterone 11α-benzoate],,"stability of product [3]: unstable, degrading rapidly back to turkesterone"
"CC(C)(O)CC[C@@H](O)[C@](C)(O)[C@H]1CC[C@@]2(O)C3=CC(=O)[C@@H]4C[C@@H](O)[C@@H](O)C[C@]4(C)[C@H]3[C@H](O)C[C@]12C [compound 1, turkesterone]",very low,
"CC(C)CC[C@@H](O)[C@](C)(O)[C@H]1CC[C@@]2(O)C3=CC(=O)[C@]4(O)C[C@@H](O)[C@@H](O)C[C@]4(C)[C@H]3[C@H](O)C[C@]12C [compound 9, muristerone A]",very low,"activity with insect EcR/RXR in mammalian cells [4]: active, but micromolar concentrations are required"

# — article PMC524646 (Journal of Insect Science, 2003)
